Test systems include NCI-H226 lung; K-562 leukemia; MDA-MB-231 breast; SF-268 CNS; OVCAR-4 ovarian; SW-620 colon; SK-MEL-28 melanoma; T-47D breast; SNB-75 CNS; OVCAR-8 ovarian.
Holding throughout (assay): growth of human tumour cells (NCI), 48 h

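Step 1: Grow cells in 96-well plates. Step 2: Expose to compound for 48 hours at 5 concentrations. Step 3: Interpolate endpoints linearly; if unreached, use highest concentration. Abbreviation: GI50, concentration required for 50% inhibition of growth. The concentration for full growth arrest is given as TGI.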 Some results are limits rather than exact numbers.

With `COc1cccc(-c2cc3c4c(nc5ccccc53)C(=O)c3cccnc3-c4n2)c1`, the GI50 is 6.27 µM in the assay with NCI-H226 lung; 1.82 µM in the assay with K-562 leukemia; 4.61 µM with MDA-MB-231 breast; 3.27 µM in the assay on SF-268 CNS; 1.94 µM with OVCAR-4 ovarian; 1.32 µM in the assay on SW-620 colon. For the same compound, the GI50 in the assay on SK-MEL-28 melanoma was 10.2 µM; in the assay on T-47D breast, 2.26 µM; in the assay with SNB-75 CNS, 2.32 µM; in the assay with OVCAR-8 ovarian it was 1.69 µM. The TGI with NCI-H226 lung was 22.3 µM; in the assay with K-562 leukemia, above 100 µM; in the assay with MDA-MB-231 breast, above 37.8 µM; in the assay with SF-268 CNS it was 14.9 µM; in the assay on OVCAR-4 ovarian, 8.5 µM; in the assay on SW-620 colon it was 3.88 µM. For the same compound, the TGI with SK-MEL-28 melanoma is 22.3 µM; with T-47D breast, 5.99 µM; in the assay with SNB-75 CNS, 5.71 µM; with OVCAR-8 ovarian, 7.08 µM.

As to `Nc1ccccc1C#C/C=C\C#Cc1cccc(O)c1`, the GI50 was 6.03 µM with NCI-H226 lung; 3.81 µM with K-562 leukemia; 2.29 µM in the assay with MDA-MB-231 breast; 7.93 µM in the assay with SF-268 CNS; 6.68 µM with OVCAR-4 ovarian; 3.12 µM with SW-620 colon. The GI50 in the assay on SK-MEL-28 melanoma is 8.97 µM; in the assay with T-47D breast it was 7.3 µM; with SNB-75 CNS it was 1.36 µM; in the assay on OVCAR-8 ovarian it was 0.663 µM. In addition, the TGI in the assay with NCI-H226 lung is 20.9 µM; in the assay with K-562 leukemia, 30.6 µM; with MDA-MB-231 breast, 14.1 µM; with SF-268 CNS, 44.5 µM; with OVCAR-4 ovarian it was above 84.8 µM; in the assay with SW-620 colon, 15.2 µM. Also, the TGI was 31.9 µM in the assay on SK-MEL-28 melanoma, above 60.8 µM with T-47D breast, 13.5 µM in the assay on SNB-75 CNS and 13.9 µM in the assay on OVCAR-8 ovarian.

Regarding `CC(C)CCNCC(O)Cn1c2ccccc2c2ccccc21` (stereo not given), the GI50 with NCI-H226 lung was 15.7 µM; with K-562 leukemia it was 3.69 µM; with MDA-MB-231 breast, 3.51 µM; with SF-268 CNS, 12.2 µM; in the assay on OVCAR-4 ovarian, 12.9 µM; in the assay on SW-620 colon, 10.4 µM. Besides, the GI50 is 4.42 µM in the assay on SK-MEL-28 melanoma, 3.99 µM in the assay on T-47D breast, 6.54 µM in the assay with SNB-75 CNS and 13.7 µM in the assay with OVCAR-8 ovarian. In addition, the TGI in the assay on NCI-H226 lung was found to be 37.9 µM; in the assay on K-562 leukemia it was 13.2 µM; with MDA-MB-231 breast, 14.4 µM; with SF-268 CNS it was 26.4 µM; with OVCAR-4 ovarian it was 27.2 µM; in the assay with SW-620 colon, 24 µM. Besides, the TGI in the assay on SK-MEL-28 melanoma is 16.1 µM; in the assay on T-47D breast, 14.6 µM; in the assay on SNB-75 CNS, 21 µM; in the assay on OVCAR-8 ovarian, 33.7 µM.

Regarding `CC(C)(C)c1[nH]nc2c1C(c1cc3ccccc3[nH]c1=O)Nc1cc(C(=O)OCc3ccccc3)ccc1N2` (stereo not given), the GI50 in the assay with NCI-H226 lung was 3.2 µM; in the assay with K-562 leukemia, 4.18 µM; in the assay on MDA-MB-231 breast it was 5.91 µM; in the assay with SF-268 CNS, 4.82 µM; in the assay on OVCAR-4 ovarian, 4.12 µM; in the assay on SW-620 colon, 3.53 µM. Moreover, the GI50 in the assay on SK-MEL-28 melanoma was 2.44 µM; in the assay on T-47D breast it was 4.08 µM; with SNB-75 CNS, 4.37 µM; with OVCAR-8 ovarian it was 5.5 µM. For the same compound, the TGI in the assay on NCI-H226 lung, in the assay on K-562 leukemia, in the assay with MDA-MB-231 breast, in the assay with SF-268 CNS, with OVCAR-4 ovarian and with SW-620 colon was above 100 µM throughout. Besides, the TGI with SK-MEL-28 melanoma was 6.43 µM; with T-47D breast, above 100 µM; in the assay on SNB-75 CNS, above 100 µM; with OVCAR-8 ovarian, above 100 µM.

Turning to `COc1ccccc1CNCCCN1C(=O)c2ccc3c4c(ccc(c24)C1=O)C(=O)N(CCCN)C3=O`, the GI50 is 1.85 µM in the assay on NCI-H226 lung; 0.751 µM in the assay with K-562 leukemia; 1.67 µM in the assay on MDA-MB-231 breast; 1.22 µM in the assay on SF-268 CNS; 0.23 µM in the assay on OVCAR-4 ovarian; 0.589 µM in the assay with SW-620 colon. Further, the GI50 is 1.74 µM in the assay on SK-MEL-28 melanoma, 1.22 µM in the assay on T-47D breast, 1.36 µM in the assay with SNB-75 CNS and 0.49 µM in the assay on OVCAR-8 ovarian. Further, the TGI came out at 3.92 µM in the assay with NCI-H226 lung; 3.35 µM with K-562 leukemia; 10.9 µM in the assay on MDA-MB-231 breast; 3.94 µM with SF-268 CNS; 0.843 µM in the assay on OVCAR-4 ovarian; 2.33 µM in the assay with SW-620 colon. The TGI was determined as 3.75 µM in the assay on SK-MEL-28 melanoma, 3.31 µM in the assay on T-47D breast, 2.72 µM in the assay on SNB-75 CNS and 3.81 µM with OVCAR-8 ovarian.

Turning to `COC(=O)c1cc2ccccc2c2c3c(ccc12)OCO3`, the GI50 in the assay on NCI-H226 lung was 26.4 µM; in the assay with K-562 leukemia, 658 µM; in the assay on MDA-MB-231 breast it was 59.7 µM; in the assay with SF-268 CNS, 50.6 µM; with OVCAR-4 ovarian, 22.3 µM; in the assay on SW-620 colon, 900 µM. In addition, the GI50 in the assay with SK-MEL-28 melanoma is 71.3 µM; with T-47D breast, 44.2 µM; in the assay with SNB-75 CNS it was 12.2 µM; in the assay with OVCAR-8 ovarian, 41.1 µM. For the same compound, the TGI with NCI-H226 lung is 146 µM; in the assay on K-562 leukemia, above 1000 µM; with MDA-MB-231 breast it was above 1000 µM; in the assay with SF-268 CNS, 371 µM; with OVCAR-4 ovarian, 133 µM; in the assay with SW-620 colon, above 1000 µM. The TGI in the assay on SK-MEL-28 melanoma is 328 µM; in the assay on T-47D breast, above 1000 µM; in the assay with SNB-75 CNS, 48.1 µM; in the assay with OVCAR-8 ovarian, above 1000 µM.

`Nc1ncnc2c1c(-c1ccc(Oc3ccccc3)cc1)nn2C[C@@H]1SSC[C@H]1O`: the GI50 was 1.69 µM with NCI-H226 lung; 0.501 µM with K-562 leukemia; 1.8 µM in the assay with MDA-MB-231 breast; 0.199 µM in the assay with SF-268 CNS; 2.12 µM in the assay with OVCAR-4 ovarian; 17.3 µM in the assay on SW-620 colon. The GI50 was 0.084 µM in the assay on SK-MEL-28 melanoma, 1.09 µM with T-47D breast, 4.25 µM in the assay with SNB-75 CNS and 3.35 µM in the assay with OVCAR-8 ovarian. The TGI with NCI-H226 lung was 4.7 µM; with K-562 leukemia, 15.5 µM; in the assay with MDA-MB-231 breast, 5.45 µM; with SF-268 CNS, 15.1 µM; with OVCAR-4 ovarian, above 83.4 µM; in the assay on SW-620 colon it was 55 µM. The TGI is 12 µM with SK-MEL-28 melanoma, 10.3 µM in the assay on T-47D breast, above 33.4 µM with SNB-75 CNS and 14.3 µM with OVCAR-8 ovarian.
